Assay results: patent US11479802B2, “Assays for screening activity of modulators of members of the hydroxy steroid (17-beta) dehydrogenase (HSD17B) family” (Regeneron Pharmaceuticals, Inc., priority 2017, dated 2022)

Tests used:
human HSD17B13 [1] = target: T1, human HSD17B13 (Homo sapiens, UniProt Q7Z5P4); assay: Substrate screening of steroid and bioactive lipid libraries against purified recombinant HSD17B13 (NADH-linked luciferase assay); assay type: biochemical; conditions: for HSD17B13 Enzymatic Activity Relative Light Units: 500 μM NAD+, 100 ng enzyme, 3 hours at 23° C.; for HSD17B13 Enzymatic Activity Percent Estradiol Control: normalized to 50 μM estradiol after subtraction of 5% DMSO
T1 sequence (Q7Z5P4 20-300): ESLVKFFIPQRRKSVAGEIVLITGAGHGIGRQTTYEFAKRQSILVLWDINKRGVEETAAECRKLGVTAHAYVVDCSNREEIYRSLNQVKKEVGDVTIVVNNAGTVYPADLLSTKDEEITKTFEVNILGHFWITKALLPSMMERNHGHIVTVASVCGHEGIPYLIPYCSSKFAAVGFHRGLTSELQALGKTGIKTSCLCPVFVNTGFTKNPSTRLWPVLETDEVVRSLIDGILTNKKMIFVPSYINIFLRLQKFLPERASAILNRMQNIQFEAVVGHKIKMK
Outline: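 Substrates (bioactive lipids 5 μM, steroids 50 μM; 5% DMSO) tested with 500 μM NAD+ and 100 ng recombinant human HSD17B13 in 0.2 M Tris-HCl pH 7.5, 3 h, 23° C. Luminescent NADH detection followed 1 h later; RLU normalized to estradiol (50 μM, 100%) and DMSO (0%) controls.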

HSD17B10 = target: T2, HSD17B10 (Homo sapiens, UniProt Q99714); assay: Steroid substrate panel against HSD17B family member B10; assay type: biochemical; conditions: substrate at 50 μM; estradiol set as 100%
T2 construct: made in house
T2 sequence (Q99714 1-261): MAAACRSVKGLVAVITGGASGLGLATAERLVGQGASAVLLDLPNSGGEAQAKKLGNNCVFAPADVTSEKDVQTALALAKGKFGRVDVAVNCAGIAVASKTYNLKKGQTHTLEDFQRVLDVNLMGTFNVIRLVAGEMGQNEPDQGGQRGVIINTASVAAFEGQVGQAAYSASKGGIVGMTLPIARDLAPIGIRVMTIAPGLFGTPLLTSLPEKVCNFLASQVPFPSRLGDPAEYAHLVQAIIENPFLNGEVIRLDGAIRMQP
Procedure: (§1) To understand the functional consequences of premature truncation of the HSD17B13 protein due to rs72613567:TA (the associated variant, rs72613567, is an insertion of an adenine adjacent to the donor splice site of exon six (TA allele)), the enzymatic activity of isoforms A and D was evaluated in vitro using recombinant protein and nicotinamide […] dinucleotide as cofactor. Reactions were performed in a final volume of 40 μl of assay buffer (0.2 M Tris-HCl, pH 7.5) which contained 500 μM NAD^+, 5 μM bioactive lipid or 50 μM steroid (all in a final concentration of 5% DMSO), and 100 ng of recombinant human HSD17B13. Reactions were incubated for 3 hours, at 23° C., after which an equal volume detection reagent was added. Following a 1 hour incubation at 23° C., the relative light units (RLUs) were measured on an Envision Plate Reader (Perkin Elmer). Raw RLU values were normalized as percent of control (50 μM estradiol) following subtraction of negative control (5% DMSO) using the following formula: Percent of control (POC)=100×(Sample (RLU)−Negative CTRLaverage)/(Positive CTRLaverage−Negative CTRLaverage).
(§2) In order to determine specificity of compounds with inhibitory activity against HSD17B13, assays for selected members of the HSD17B family which includes HSD17B1-HSD17B14 were established. As a first step, selected family members were expressed, purified and tested for activity a using a steroid substrate panel. Substrates from the steroid panel were tested at 50 μM, using the standard assay protocol. Activity against the substrates for each HSD17B family member were normalized to Percent of Control (POC). The control, estradiol, was set as 100%.

HSD17B2 = target: T3, HSD17B2 (Homo sapiens, UniProt P37059); assay: Steroid substrate panel against HSD17B family member B2; assay type: biochemical; conditions: substrate at 50 μM; estradiol set as 100%
T3 construct: made in house
T3 sequence (P37059 1-387): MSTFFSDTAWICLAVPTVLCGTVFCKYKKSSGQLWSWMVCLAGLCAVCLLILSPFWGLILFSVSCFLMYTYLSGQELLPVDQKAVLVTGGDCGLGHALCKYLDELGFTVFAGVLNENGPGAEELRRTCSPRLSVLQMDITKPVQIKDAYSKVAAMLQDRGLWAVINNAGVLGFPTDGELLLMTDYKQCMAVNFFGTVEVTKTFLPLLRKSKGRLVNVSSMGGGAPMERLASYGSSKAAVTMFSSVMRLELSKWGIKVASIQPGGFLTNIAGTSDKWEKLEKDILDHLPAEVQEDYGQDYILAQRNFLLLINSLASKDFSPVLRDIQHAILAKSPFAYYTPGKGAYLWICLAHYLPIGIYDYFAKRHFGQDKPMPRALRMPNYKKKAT
Procedure: as §1, §2

[2] = target: T4, HEK293 cells overexpressing HSD17B13 isoform A (Homo sapiens, UniProt Q7Z5P4); assay: HEK293 cell-based substrate consumption assay (LC-MS); conditions: 1 μM substrate, 2 hours or 48 hours
T4 construct: expressed in transfected cells; host or cells: HEK293
T4 sequence (Q7Z5P4 20-300): T1 sequence (Q7Z5P4 20-300)

HSD17B1 [3] = target: T5, HSD17B1 (Homo sapiens, UniProt P14061); assay: Steroid substrate panel against HSD17B family member B1; assay type: biochemical; conditions: substrate at 50 μM; estradiol set as 100%
T5 construct: made in house
T5 sequence (P14061 1-328): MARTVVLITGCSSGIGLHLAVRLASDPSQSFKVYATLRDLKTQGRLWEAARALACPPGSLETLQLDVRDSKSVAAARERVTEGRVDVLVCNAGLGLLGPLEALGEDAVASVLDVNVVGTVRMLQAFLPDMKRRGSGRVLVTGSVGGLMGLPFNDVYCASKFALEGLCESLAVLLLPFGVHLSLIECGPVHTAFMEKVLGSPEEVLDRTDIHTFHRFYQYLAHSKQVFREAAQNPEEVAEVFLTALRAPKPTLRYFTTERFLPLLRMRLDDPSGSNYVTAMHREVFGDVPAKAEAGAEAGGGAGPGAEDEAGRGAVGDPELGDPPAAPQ
Procedure: as §1, §2

HSD17B11 = target: T6, HSD17B11 (Homo sapiens, UniProt Q8NBQ5); assay: Steroid substrate panel against HSD17B family member B11; assay type: biochemical; conditions: substrate at 50 μM; estradiol set as 100%
T6 construct: made in house
T6 sequence (Q8NBQ5 20-300): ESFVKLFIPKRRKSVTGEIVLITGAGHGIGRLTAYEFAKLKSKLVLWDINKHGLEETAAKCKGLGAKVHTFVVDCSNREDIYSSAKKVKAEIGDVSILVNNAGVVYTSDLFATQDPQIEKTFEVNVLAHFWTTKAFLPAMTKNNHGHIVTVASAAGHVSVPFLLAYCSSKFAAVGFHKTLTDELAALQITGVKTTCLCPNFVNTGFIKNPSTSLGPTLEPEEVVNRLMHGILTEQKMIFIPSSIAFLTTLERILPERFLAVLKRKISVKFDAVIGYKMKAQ
Procedure: as §1, §2

HSD17B5 = target: T7, HSD17B5 (Homo sapiens, UniProt P42330); assay: Steroid substrate panel against HSD17B family member B5; assay type: biochemical; conditions: substrate at 50 μM; estradiol set as 100%
T7 construct: made in house
T7 sequence (P42330 1-323): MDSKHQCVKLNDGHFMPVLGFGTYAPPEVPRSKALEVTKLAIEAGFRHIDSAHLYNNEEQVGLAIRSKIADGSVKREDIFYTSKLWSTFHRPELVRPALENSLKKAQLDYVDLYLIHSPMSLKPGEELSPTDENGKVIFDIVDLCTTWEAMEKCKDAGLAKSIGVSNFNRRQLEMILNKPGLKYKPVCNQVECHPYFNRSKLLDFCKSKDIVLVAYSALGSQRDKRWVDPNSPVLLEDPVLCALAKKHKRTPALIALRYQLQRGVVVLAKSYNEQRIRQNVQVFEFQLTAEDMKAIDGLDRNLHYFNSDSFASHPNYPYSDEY
Procedure: as §1, §2

HSD17B4 = target: T8, HSD17B4 (Homo sapiens, UniProt P51659); assay: Steroid substrate panel against HSD17B family member B4; assay type: biochemical; conditions: substrate at 50 μM; estradiol set as 100%
T8 construct: made in house
T8 sequence (P51659 1-736): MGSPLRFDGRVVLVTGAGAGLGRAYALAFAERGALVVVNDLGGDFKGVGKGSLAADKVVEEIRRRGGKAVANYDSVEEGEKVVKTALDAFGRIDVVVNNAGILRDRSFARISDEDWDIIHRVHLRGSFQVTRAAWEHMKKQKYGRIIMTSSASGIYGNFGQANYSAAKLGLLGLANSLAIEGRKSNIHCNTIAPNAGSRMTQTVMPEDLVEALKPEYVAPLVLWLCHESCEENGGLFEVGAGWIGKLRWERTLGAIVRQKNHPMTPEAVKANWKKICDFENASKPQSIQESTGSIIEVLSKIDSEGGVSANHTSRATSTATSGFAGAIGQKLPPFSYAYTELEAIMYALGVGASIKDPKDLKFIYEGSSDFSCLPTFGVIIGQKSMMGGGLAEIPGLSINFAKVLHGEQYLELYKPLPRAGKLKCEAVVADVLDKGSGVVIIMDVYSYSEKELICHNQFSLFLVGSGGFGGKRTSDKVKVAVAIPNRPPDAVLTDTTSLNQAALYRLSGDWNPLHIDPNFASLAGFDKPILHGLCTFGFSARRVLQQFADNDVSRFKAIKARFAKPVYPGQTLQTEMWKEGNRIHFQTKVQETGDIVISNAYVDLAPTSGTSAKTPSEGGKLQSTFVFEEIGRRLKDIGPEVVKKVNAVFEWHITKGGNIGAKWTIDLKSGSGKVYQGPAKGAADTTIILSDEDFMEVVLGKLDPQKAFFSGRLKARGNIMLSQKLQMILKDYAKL
Procedure: as §1, §2

HSD17B1 [4] = target: T5, HSD17B1; assay: Cell-based assay of estrone to estradiol conversion by HSD17B1 (LC-MS); conditions: over 48 hour period
Excerpt: The capacity of HSD17B1 to convert estrone to estradiol, and the capacity of equilin to inhibit HSD17B1 was confirmed in a cell-based assay. Liquid chromatography and mass spectrometry (LC-MS) was used to measure estrone and estradiol concentration over time.

[5] = target: T9, recombinant HSD17B13 (E20-K300) (Homo sapiens, UniProt Q7Z5P4); assay: Biochemical NADH-linked screen of bioactive lipids as substrates (Example 2); conditions: 5 μM substrate, 100 μM NAD+, four hours at room temperature
T9 construct: recombinant HSD17B13 (E20-K300)
T9 sequence (Q7Z5P4 20-300): T1 sequence (Q7Z5P4 20-300)
Procedure: The biochemical assay described in Example 1 was repeated using bioactive lipids as substrates. In brief, 5 μM of each substrate was incubated in 40 μL reactions containing 1 μg of recombinant HSD17B13 (E20-K300) or beta-2 microglobulin (as a negative control) and 100 μM NAD^+ in 0.2M Tris-HCl, pH 7.5. After four hours of incubation at room temperature, 10 μL of each reaction was mixed with 10 μL luciferase and read, after 40 minutes, on an Envision Plate Reader (Perkin Elmer).

human HSD17B13 [6] = target: T1, human HSD17B13; assay: Biochemical NADH-linked screen of compound libraries as substrates for HSD17B13 (Example 1); conditions: 50 μM substrate, 0.5 mM NAD+, 24 hr at 25 degrees C.
Procedure: A biochemical assay was employed to screen the compounds from the library. The assay employed the following reaction conditions: 0.1 M Potassium phosphate buffer pH 7.5, 0.5 mM NAD^+, 50 μM substrate in DMSO 2% reaction volume or DMSO alone (no substrate) as a control, and 1 μl of purified enzyme or green fluorescent protein (GFP) as a control, with a final reaction volume of 100 microliters. Test samples were subject to a 24 hr incubation at 25 degrees C. After incubation, 20 μL reaction above+20 μL luciferase were incubated at room temperature for 1 h and read on an Envision Plate Reader (Perkin Elmer).

C[C@]12CCC(O)C[C@@H]1CC[C@@H]1[C@@H]2CC[C@]2(C)[C@@H](O)CC[C@@H]12 (stereo partly shown) [Androstanediol]
HSD17B13 Enzymatic Activity Relative Light Units (human HSD17B13 [1]; Steroid Library, 50 μM steroid): 488440 RLU
HSD17B13 Enzymatic Activity Percent Estradiol Control (human HSD17B13 [1]; Steroid Library, 50 μM steroid): 5.73%
Percent of Control (POC), B10 (HSD17B10): 1.9%
Percent of Control (POC), B2 (HSD17B2): 46.9%
conversion of substrate catalyzed by HSD17B13 in cells [2]: did not substantially catalyze the conversion
Percent of Control (POC), B1 (HSD17B1 [3]): 0.3%
Percent of Control (POC), B11 (HSD17B11): 0.0%
Percent of Control (POC), B5 (HSD17B5): 216%
Percent of Control (POC), B4 (HSD17B4): 63.0%

C[C@]12CC[C@H]3C(=CCc4cc(O)ccc43)[C@@H]1CCC2=O [Equilin]
HSD17B13 Enzymatic Activity Relative Light Units (human HSD17B13 [1]; Steroid Library, 50 μM steroid): 186840 RLU
HSD17B13 Enzymatic Activity Percent Estradiol Control (human HSD17B13 [1]; Steroid Library, 50 μM steroid): 0.46%
inhibition of conversion of estrone to estradiol by HSD17B1 (HSD17B1 [4]): can be inhibited by equilin

CCCCC/C=C\C[C@@H](O)/C=C/C=C/C=C\[C@@H](O)CCCC(=O)O [Leukotriene B4]
identified as enzymatic substrate of HSD17B13 (human HSD17B13 [1]; 265 unique putative substrates tested): enzymatic substrates
HSD17B13 Enzymatic Activity Relative Light Units (human HSD17B13 [1]; Bioactive Lipid Library, 5 μM bioactive lipid (Estradiol Control 50 μM)): 1743000 RLU
HSD17B13 Enzymatic Activity Percent Estradiol Control (human HSD17B13 [1]; Bioactive Lipid Library, 5 μM bioactive lipid): 115.40%
substrate for HSD17B13 [5]: is a substrate

C[C@]12CC[C@H]3[C@@H](CC[C@@]45O[C@@H]4C(O)=C(C#N)C[C@]35C)[C@@H]1CC[C@@H]2O [Trilostane]
HSD17B13 Enzymatic Activity Relative Light Units (human HSD17B13 [1]; Steroid Library, 50 μM steroid): 1896560 RLU
HSD17B13 Enzymatic Activity Percent Estradiol Control (human HSD17B13 [1]; Steroid Library, 50 μM steroid): 30.32%
suitability as substrate for HSD17B13 (human HSD17B13 [6]): suitable substrates
